*1 amine or outer side, *2 acyl side, *3 side chain or, on linkers, in order; H or OH if unused. Where a SMILES comes first, the peptide text is derived from it. Side-chain parts run from the residue outwards. [ ]: non-standard residue; d: D form. The star is where a group is joined. C20 diacid = O=C(O)CCCCCCCCCCCCCCCCCCC(=O)*; C16 diacid = O=C(O)CCCCCCCCCCCCCCC(=O)*; γGlu = O=C(O)[C@H](CCC(=O)[*:2])N[*:1]; NMeI = CC[C@H](C)[C@H](NC)C(=O)O; Decanoyl = CCCCCCCCCC(=O)*; Pentanoyl = CCCCC(=O)*; Aib = CC(C)(N)C(=O)O
Legend:
[1] = target: T1, human CRF2a receptor (Homo sapiens, UniProt Q13324); assay: Activity at human CRF2a receptor, cAMP functional assay in TeloHEAC cells; type: cell-based; conditions: TeloHEAC cells stably expressing human CRF2a receptor, relative to urocortin 2 (100 nM = 100%)
T1 construct: expressed in transfected cells; host or cells: TeloHEAC cells
T1 sequence (Q13324 1-411): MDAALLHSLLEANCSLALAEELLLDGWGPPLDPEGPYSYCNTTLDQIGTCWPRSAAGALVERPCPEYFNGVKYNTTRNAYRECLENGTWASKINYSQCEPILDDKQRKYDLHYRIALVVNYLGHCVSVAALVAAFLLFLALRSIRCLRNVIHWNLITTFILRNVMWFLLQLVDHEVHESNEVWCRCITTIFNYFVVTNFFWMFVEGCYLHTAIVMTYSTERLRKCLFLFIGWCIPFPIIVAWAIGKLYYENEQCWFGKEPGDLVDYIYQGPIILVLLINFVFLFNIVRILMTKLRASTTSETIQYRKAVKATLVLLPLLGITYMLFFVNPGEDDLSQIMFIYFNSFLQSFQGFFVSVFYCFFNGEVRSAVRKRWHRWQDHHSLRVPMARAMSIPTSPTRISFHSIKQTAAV
Summary of the method: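 TeloHEAC cells stably expressing human CRF2a (10000 cells/well, suspended in HBSS/20 mM HEPES with 2 mM IBMX) were exposed to compounds for 30 min at 37 °C. cAMP was read as the 665/620 nm fluorescence ratio after 1 h at room temperature. EC50 was derived relative to 100 nM urocortin 2, set as 100%.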

[2] = target: T2, CFR1R receptor (Homo sapiens, UniProt P34998); assay: Activity at anti-target CFR1R receptor, cAMP assay in CRF1R-overexpression CHO-K1 cells; type: cell-based; conditions: 100% = Sauvagine at 100 nM; for EC50: cAMP
T2 construct: host or cells: CHO-K1 (clone 2)
T2 sequence (P34998 24-415): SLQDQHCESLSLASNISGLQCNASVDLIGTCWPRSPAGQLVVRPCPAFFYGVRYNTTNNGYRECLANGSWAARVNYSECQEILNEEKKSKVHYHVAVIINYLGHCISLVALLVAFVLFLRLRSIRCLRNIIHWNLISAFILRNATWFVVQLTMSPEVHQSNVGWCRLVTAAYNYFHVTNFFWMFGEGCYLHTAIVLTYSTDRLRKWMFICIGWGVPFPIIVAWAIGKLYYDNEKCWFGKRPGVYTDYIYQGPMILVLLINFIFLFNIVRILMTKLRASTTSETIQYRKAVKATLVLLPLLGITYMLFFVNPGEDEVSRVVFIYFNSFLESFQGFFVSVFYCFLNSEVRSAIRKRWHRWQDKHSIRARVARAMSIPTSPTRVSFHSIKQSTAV
Summary of the method: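 Run as for the TeloHAEC line, except the full-activation control well received Sauvagine (100 nM) and final density was 4000 cells/well. Cells from clone 2 came from frozen aliquots of near-confluent cultures.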

[3] = test system: Sprague Dawley rats; assay: Effect on systolic blood pressure, telemetry in Sprague Dawley rats; type: in vivo, rat; conditions: 0.1 mg/kg SC; for Systolic blood pressure (Mean) % change from baseline, 8 h / Systolic blood pressure (Mean) % change from baseline, 12 h / Systolic blood pressure (Mean) % change from baseline, 24 h: n=2; for Duration of action: last time point with an effect on BP still observed
Experimental: The effect of the compounds on systolic blood pressure was determined in telemetry studies in Sprague Dawley rats at a dosage of 0.1 mg/kg SC.
The rats were previously implanted with a telemetry device (DSI, Saint-Paul, USA, HD-S10, HD-S11 or HD S21) and allowed to recover for a minimum period of 2 weeks before treatment with vehicle or the different peptides. Blood pressure (BP) was recorded through a catheter inserted into the abdominal aorta. The device body was placed in the abdomen. The animals were allowed to recover from surgery for at least 10 days before the first administration of test drug or vehicle.
The chronically instrumented rats of the telemetry studies were individually housed immediately after surgery and then housed in pairs with a non-instrumented companion after recovery.
Systolic blood pressure was recorded for one hour before treatment (basal period). Thereafter, the subcutaneous administration of the test compound or its vehicle was performed, under continuous recording of the signal up to 48 hours, analysed and expressed as % change from baseline.
Representative data are presented in Table 13 below, in which “Duration of action” indicates the last time point for which an effect on BP was still observed (n=2 animals/peptide)

CC[C@H](C)[C@H](NC)C(=O)N[C@H](C(=O)N[C@@H](CC(C)C)C(=O)N[C@@H](CO)C(=O)N[C@@H](CC(C)C)C(=O)N[C@@H](CC(=O)O)C(=O)N[C@@H](C(=O)N1CCC[C@H]1C(=O)N[C@H](C(=O)NCC(=O)N[C@@H](CC(C)C)C(=O)N[C@@H](CCCCNC(=O)CC[C@H](NC(=O)CCCCCCCCCCCCCCCCCCC(=O)O)C(=O)O)C(=O)N[C@@H](CCCCN)C(=O)N[C@H](C(=O)N[C@@H](CC(C)C)C(=O)N[C@@H](CC(C)C)C(=O)N[C@@H](CCC(=O)O)C(=O)N[C@@H](CCC(N)=O)C(=O)N[C@@H](CCC(=O)O)C(=O)N[C@@H](CCCCN)C(=O)N[C@@H](CCC(N)=O)C(=O)N[C@@H](CCCCN)C(=O)N[C@@H](CCCCN)C(=O)N[C@@H](CCC(N)=O)C(=O)N[C@@H](CCCNC(=N)N)C(=O)N[C@@H](CCC(=O)O)C(=O)N[C@@H](CCC(N)=O)C(=O)N[C@@H](C)C(=O)N[C@@H](CCC(=O)O)C(=O)N[C@H](C(=O)N[C@@H](CC(N)=O)C(=O)NC(C)(C)C(=O)N[C@@H](CCC(N)=O)C(=O)N[C@H](C(=O)N[C@@H](CC(C)C)C(=O)N[C@@H](C)C(=O)N[C@@H](CCC(N)=O)C(=O)N[C@H](C(N)=O)C(C)C)[C@@H](C)CC)[C@@H](C)O)[C@@H](C)CC)[C@@H](C)CC)C(C)C)C(C)C [compound 229] (H-[NMeI]VLSLD[dV]PIGLK([γGlu-C20 diacid])KILLEQEKQKKQREQAETN[Aib]QILAQV-NH2)
EC50 [1]: 0.11 nM | Emax (% I) [2]: 43 % I | Systolic blood pressure (Mean) % change from baseline, 8 h [3]: −12% | Systolic blood pressure (Mean) % change from baseline, 12 h [3]: −9% | Systolic blood pressure (Mean) % change from baseline, 24 h [3]: −5% | Duration of action [3]: >24 h

CCCCCCCCCC(=O)N[C@H](C(=O)N[C@@H](CC(C)C)C(=O)N[C@@H](CO)C(=O)N[C@@H](CC(C)C)C(=O)N[C@@H](CC(=O)O)C(=O)N[C@@H](C(=O)N1CCC[C@H]1C(=O)N[C@H](C(=O)N[C@@H](CCCCN)C(=O)N[C@@H](CC(C)C)C(=O)N[C@@H](CCCCNC(=O)CC[C@H](NC(=O)CCCCCCCCCCCCCCC(=O)O)C(=O)O)C(=O)N[C@@H](CCCCN)C(=O)N[C@H](C(=O)N[C@@H](CC(C)C)C(=O)N[C@@H](CC(C)C)C(=O)N[C@@H](CCC(=O)O)C(=O)N[C@@H](CCC(N)=O)C(=O)N[C@@H](CCC(=O)O)C(=O)N[C@@H](CCCCN)C(=O)N[C@@H](CCC(N)=O)C(=O)N[C@@H](CCCCN)C(=O)N[C@@H](CCCCN)C(=O)N[C@@H](CCC(N)=O)C(=O)N[C@@H](CCCNC(=N)N)C(=O)N[C@@H](CCC(=O)O)C(=O)N[C@@H](CCC(N)=O)C(=O)N[C@@H](C)C(=O)N[C@@H](CCC(=O)O)C(=O)N[C@H](C(=O)N[C@@H](CC(N)=O)C(=O)NC(C)(C)C(=O)N[C@@H](CCC(N)=O)C(=O)N[C@H](C(=O)N[C@@H](CC(C)C)C(=O)N[C@@H](C)C(=O)N[C@@H](CCC(N)=O)C(=O)N[C@H](C(N)=O)C(C)C)[C@@H](C)CC)[C@@H](C)O)[C@@H](C)CC)[C@@H](C)CC)C(C)C)C(C)C [compound 158] (Decanoyl-VLSLD[dV]PIKLK([γGlu-C16 diacid])KILLEQEKQKKQREQAETN[Aib]QILAQV-NH2)
EC50 [1]: 0.04 nM | Emax (% I) [2]: 54 % I | Systolic blood pressure (Mean) % change from baseline, 8 h [3]: −11% | Systolic blood pressure (Mean) % change from baseline, 12 h [3]: −7% | Systolic blood pressure (Mean) % change from baseline, 24 h [3]: 3% | Duration of action [3]: 23 h

CC[C@H](C)[C@H](NC(C)=O)C(=O)N[C@H](C(=O)N[C@@H](CC(C)C)C(=O)N[C@@H](CO)C(=O)N[C@@H](CC(C)C)C(=O)N[C@@H](CC(=O)O)C(=O)N[C@@H](C(=O)N1CCC[C@H]1C(=O)N[C@H](C(=O)N[C@@H](CCCCN)C(=O)N[C@@H](CC(C)C)C(=O)N[C@@H](CCCCNC(=O)CC[C@H](NC(=O)CCCCCCCCCCCCCCCCCCC(=O)O)C(=O)O)C(=O)N[C@@H](CCCCN)C(=O)N[C@H](C(=O)N[C@@H](CC(C)C)C(=O)N[C@@H](CC(C)C)C(=O)N[C@@H](CCC(=O)O)C(=O)N[C@@H](CCC(N)=O)C(=O)N[C@@H](CCC(=O)O)C(=O)N[C@@H](CCCCN)C(=O)N[C@@H](CCC(N)=O)C(=O)N[C@@H](CCCCN)C(=O)NC(C)(C)C(=O)N[C@@H](CCC(N)=O)C(=O)N[C@@H](CCCNC(=N)N)C(=O)N[C@@H](CCC(=O)O)C(=O)N[C@@H](CCC(N)=O)C(=O)N[C@@H](C)C(=O)N[C@@H](CCC(=O)O)C(=O)N[C@H](C(=O)N[C@@H](CC(N)=O)C(=O)NC(C)(C)C(=O)N[C@@H](CCC(N)=O)C(=O)N[C@H](C(=O)N[C@@H](CC(C)C)C(=O)N[C@@H](C)C(=O)N[C@@H](CCC(N)=O)C(=O)N[C@H](C(N)=O)C(C)C)[C@@H](C)CC)[C@@H](C)O)[C@@H](C)CC)[C@@H](C)CC)C(C)C)C(C)C [compound 209] (Ac-IVLSLD[dV]PIKLK([γGlu-C20 diacid])KILLEQEKQK[Aib]QREQAETN[Aib]QILAQV-NH2)
EC50 [1]: 0.22 nM | Emax (% I) [2]: 21 % I | EC50 [2]: > 250 nM | Systolic blood pressure (Mean) % change from baseline, 8 h [3]: −18% | Systolic blood pressure (Mean) % change from baseline, 12 h [3]: −11% | Systolic blood pressure (Mean) % change from baseline, 24 h [3]: 3% | Duration of action [3]: 23 h

CCCCC(=O)N[C@H](C(=O)N[C@@H](CC(C)C)C(=O)N[C@@H](CO)C(=O)N[C@@H](CC(C)C)C(=O)N[C@@H](CC(=O)O)C(=O)N[C@@H](C(=O)N1CCC[C@H]1C(=O)N[C@H](C(=O)N[C@@H](CCCCN)C(=O)N[C@@H](CC(C)C)C(=O)N[C@@H](CCCCNC(=O)CC[C@H](NC(=O)CCCCCCCCCCCCCCCCCCC(=O)O)C(=O)O)C(=O)N[C@@H](CCCCN)C(=O)N[C@H](C(=O)N[C@@H](CC(C)C)C(=O)N[C@@H](CC(C)C)C(=O)N[C@@H](CCC(=O)O)C(=O)N[C@@H](CCC(N)=O)C(=O)N[C@@H](CCC(=O)O)C(=O)N[C@@H](CCCCN)C(=O)N[C@@H](CCC(N)=O)C(=O)N[C@@H](CCCCN)C(=O)NC(C)(C)C(=O)N[C@@H](CCC(N)=O)C(=O)N[C@@H](CCCNC(=N)N)C(=O)N[C@@H](CCC(=O)O)C(=O)N[C@@H](CCC(N)=O)C(=O)N[C@@H](C)C(=O)N[C@@H](CCC(=O)O)C(=O)N[C@H](C(=O)N[C@@H](CC(N)=O)C(=O)NC(C)(C)C(=O)N[C@@H](CCC(N)=O)C(=O)N[C@H](C(=O)N[C@@H](CC(C)C)C(=O)N[C@@H](C)C(=O)N[C@@H](CCC(N)=O)C(=O)N[C@H](C(N)=O)C(C)C)[C@@H](C)CC)[C@@H](C)O)[C@@H](C)CC)[C@@H](C)CC)C(C)C)C(C)C [compound 220] (Pentanoyl-VLSLD[dV]PIKLK([γGlu-C20 diacid])KILLEQEKQK[Aib]QREQAETN[Aib]QILAQV-NH2)
EC50 [1]: 0.27 nM | Emax (% I) [2]: 32 % I | EC50 [2]: > 250 nM | Systolic blood pressure (Mean) % change from baseline, 8 h [3]: −17% | Systolic blood pressure (Mean) % change from baseline, 12 h [3]: −14% | Systolic blood pressure (Mean) % change from baseline, 24 h [3]: −11% | Duration of action [3]: >24 h

Source: US20260001928A1 (CORTERIA PHARMACEUTICALS, priority 2022, published 2026)
